# Experimental data as given in patent US20180139962A1, “FUNGICIDAL N-CYCLOALKYL-N-{[ORTHO-(1-SUBSTITUTED-CYCLOALKYL)HETEROARYL]METHYL}PYRAZOLE(THIO)CARBOXAMIDS” (Bayer CropScience Aktiengesellschaft, priority 2015, published 2018).
# Values joined by “and” are separate entries in the source; they are usually repeats but may differ in a detail not shown here. Equal entries are not always repeated.
# Tested on: not listed separately
# Assay: log P determination by HPLC on reversed-phase column (C 18), EEC Directive 79/831 Annex V.A8
# Assay type: physicochemical
# Conditions: C 18 reversed phase, 40° C., 0.1% aqueous formic acid and acetonitrile, linear gradient 10% to 90% acetonitrile
# Experimental: In table 1, the log P values were determined in accordance with EEC Directive 79/831 Annex V.A8 by HPLC (High Performance Liquid Chromatography) on a reversed-phase column (C 18), using the method described below: Temperature: 40° C.; Mobile phases: 0.1% aqueous formic acid and acetonitrile; linear gradient from 10% acetonitrile to 90% acetonitrile. Calibration was carried out using unbranched alkan-2-ones (comprising 3 to 16 carbon atoms) with known log P values (determination of the log P values by the retention times using linear interpolation between two successive alkanones). lambda-max-values were determined using UV-spectra from 200 nm to 400 nm and the peak values of the chromatographic signals.
row,Compound,logP
1,Cn1nc(C(F)F)c(C(=O)N(Cc2cccnc2C2(C)CC2)C2CC2)c1F [I.01],1.28
2,Cn1nc(C(F)F)c(C(=O)N(Cc2cccnc2C2(C)CC2)C2CC2)c1Cl [I.02],1.41
3,Cn1nc(C(F)F)c(C(=O)N(Cc2cc(Cl)cnc2C2(C)CC2)C2CC2)c1F [I.03],2.88
4,Cn1nc(C(F)F)c(C(=O)N(Cc2cc(Cl)cnc2C2(C)CC2)C2CC2)c1Cl [I.04],3.09
5,Cc1cnc(C2(C)CC2)c(CN(C(=O)c2c(C(F)F)nn(C)c2F)C2CC2)c1 [I.05],1.42
6,Cc1cnc(C2(C)CC2)c(CN(C(=O)c2c(C(F)F)nn(C)c2Cl)C2CC2)c1 [I.06],1.54
7,Cn1nc(C(F)F)c(C(=O)N(Cc2cc(Br)cnc2C2(C)CC2)C2CC2)c1Cl [I.07],3.12
8,Cn1nc(C(F)F)c(C(=O)N(Cc2cc(Br)cnc2C2(C)CC2)C2CC2)c1F [I.08],2.91
9,Cn1nc(C(F)F)c(C(=O)N(Cc2sccc2C2(C)CC2)C2CC2)c1F [I.09],3.70
10,Cn1nc(C(F)F)c(C(=O)N(Cc2sccc2C2(C)CC2)C2CC2)c1Cl [I.10],3.85
11,Cc1cc(C2(C)CC2)c(CN(C(=O)c2c(C(F)F)nn(C)c2F)C2CC2)s1 [I.11],4.13
12,Cc1cc(C2(C)CC2)c(CN(C(=O)c2c(C(F)F)nn(C)c2Cl)C2CC2)s1 [I.12],4.27
13,Cn1nc(C(F)F)c(C(=O)N(Cc2sccc2C2(Cl)CC2)C2CC2)c1F [I.13],3.37
14,Cn1nc(C(F)F)c(C(=O)N(Cc2sccc2C2(Cl)CC2)C2CC2)c1Cl [I.14],3.55
15,Cc1cc(C2(Cl)CC2)c(CN(C(=O)c2c(C(F)F)nn(C)c2Cl)C2CC2)s1 [I.16],3.92
16,COC1(c2cc(C)sc2CN(C(=O)c2c(C(F)F)nn(C)c2F)C2CC2)CC1 [I.17],3.37

row,Compound,logP
1,Cn1nc(C(F)F)c(C(=O)N(Cc2sc(Br)cc2C2(Cl)CC2)C2CC2)c1F [I.18],4.15
2,Cn1nc(C(F)F)c(C(=S)N(Cc2cccnc2C2(C)CC2)C2CC2)c1Cl [I.19],1.63
3,Cn1nc(C(F)F)c(C(=S)N(Cc2cccnc2C2(C)CC2)C2CC2)c1F [I.20],1.53
4,Cc1cnc(C2(C)CC2)c(CN(C(=S)c2c(C(F)F)nn(C)c2Cl)C2CC2)c1 [I.21],1.69
5,Cc1cnc(C2(C)CC2)c(CN(C(=S)c2c(C(F)F)nn(C)c2F)C2CC2)c1 [I.22],1.59
6,Cn1nc(C(F)F)c(C(=S)N(Cc2cc(Cl)cnc2C2(C)CC2)C2CC2)c1F [I.23],3.52
7,Cn1nc(C(F)F)c(C(=S)N(Cc2cc(Cl)cnc2C2(C)CC2)C2CC2)c1Cl [I.24],3.71
8,Cn1nc(C(F)F)c(C(=S)N(Cc2sccc2C2(Cl)CC2)C2CC2)c1Cl [I.25],4.19
9,Cc1cc(C2(Cl)CC2)c(CN(C(=S)c2c(C(F)F)nn(C)c2Cl)C2CC2)s1 [I.26],4.56
10,Cn1nc(C(F)F)c(C(=S)N(Cc2sccc2C2(C)CC2)C2CC2)c1Cl [I.27],4.44
11,Cn1nc(C(F)F)c(C(=S)N(Cc2sccc2C2(C)CC2)C2CC2)c1F [I.28],4.28
12,Cn1nc(C(F)F)c(C(=O)N(Cc2cc(C3=CCCC3)cnc2C2(C)CC2)C2CC2)c1F [I.29],2.05
13,Cn1nc(C(F)F)c(C(=O)N(Cc2cc(-c3ccsc3)cnc2C2(C)CC2)C2CC2)c1F [I.30],2.12
14,Cn1nc(C(F)F)c(C(=O)N(Cc2cc(-c3ccccc3)cnc2C2(C)CC2)C2CC2)c1Cl [I.31],2.33
15,C=Cc1cnc(C2(C)CC2)c(CN(C(=O)c2c(C(F)F)nn(C)c2Cl)C2CC2)c1 [I.32],1.91

# Same assay, conditions: reversed-phase C18 HPLC column, C 18 reversed phase, 40° C., 0.1% aqueous formic acid and acetonitrile, linear gradient 10% to 90% acetonitrile
row,Compound,chromatographic logP
1,"Cc1cc(C2(Cl)CC2)c(CN(C(=O)c2c(C(F)F)nn(C)c2F)C2CC2)s1 [I.15, N-{[3-(1-chlorocyclopropyl)-5-methyl-2-thienyl]methyl}-N-cyclopropyl-3-(difluoromethyl)-5-fluoro-1-methyl-1H-pyrazole-4-carboxamide]",3.76
2,"CC1(c2ccsc2CNC2CC2)CC1 [IIa.01, N-{[3-(1-methylcyclopropyl)-2-thienyl]methyl}cyclopropanamine]",0.7
3,"ClC1(c2ccsc2CNC2CC2)CC1 [IIa.02, N-{[3-(1-chlorocyclopropyl)-2-thienyl]methyl}cyclopropanamine]",0.87
4,"Cc1cc(C2(Cl)CC2)c(CNC2CC2)s1 [IIa.03, N-{[3-(1-chlorocyclopropyl)-5-methyl-2-thienyl]methyl}cyclopropanamine]",1.2
5,"COC1(c2cc(C)sc2CNC2CC2)CC1 [IIa.04, N-{[3-(1-methoxycyclopropyl)-5-methyl-2-thienyl]methyl}cyclopropanamine]",1.07
6,"O=Cc1sccc1C1(Cl)CC1 [IV.01, 3-(1-chlorocyclopropyl)thiophene-2-carbaldehyde]",2.41
7,"Cc1cc(C2(Cl)CC2)c(C=O)s1 [IV.02, 3-(1-chlorocyclopropyl)-5-methylthiophene-2-carbaldehyde]",2.75
8,"CC1(c2ccsc2CBr)CC1 [Va1.01, 2-(bromomethyl)-3-(1-methylcyclopropyl)thiophene]",2.14
9,"Cc1cc(C2(C)CC2)c(CBr)s1 [Va1.02, 2-(bromomethyl)-5-methyl-3-(1-methylcyclopropyl)thiophene]",2.54
10,"CC1(c2ccsc2CO)CC1 [Vc.01, [3-(1-methylcyclopropyl)-2-thienyl]methanol]",2.09
11,"Cc1cc(C2(C)CC2)c(CO)s1 [Vc.02, [5-methyl-3-(1-methylcyclopropyl)-2-thienyl]methanol]",2.52
12,"N#CC1(c2ccsc2CO)CC1 [Vc.03, 1-[2-(hydroxymethyl)-3-thienyl]cyclopropanecarbonitrile]",0.63

# Tested on: Uromyces appendiculatus
# Assay: In vivo preventive test on Uromyces appendiculatus (bean rust)
# Conditions: Table B2, dose 100 ppm, bean plants, comparison with isopropyl analogues of WO2012/059497
# Experimental: EXAMPLE B: IN VIVO PREVENTIVE TEST ON UROMYCES APPENDICULATUS (BEAN RUST) Solvent: 5% by volume of Dimethyl sulfoxide • 10% by volume of Acetone Emulsifier: 1 μL of Tween® 80 per mg of active ingredient The active ingredients are made soluble and homogenized in a mixture of Dimethyl sulfoxide/Acetone//Tween® 80 and then diluted in water to the desired concentration. The young plants of bean are treated by spraying the active ingredient prepared as described above. Control plants are treated only with an aqueous solution of Acetone/Dimethyl sulfoxide/Tween® 80. After 24 hours, the plants are contaminated by spraying the leaves with an aqueous suspension of Uromyces appendiculatus spores. The contaminated bean plants are incubated for 24 hours at 20° C. and at 100% relative humidity and then for 10 days at 20° C. and at 70-80% relative humidity. The test is evaluated 11 days after the inoculation. 0% means an efficacy which corresponds to that of the control plants while an efficacy of 100% means that no disease is observed.
row,Compound,Efficacy
1,"Cc1cc(C(C)C)c(CN(C(=O)c2c(C(F)F)nn(C)c2F)C2CC2)s1 [CMP1, N-cyclopropyl-3-(difluoromethyl)-5-fluoro-N-[(3-isopropyl-5-methyl-2-thienyl)methyl]-1-methyl-1H-pyrazole-4-carboxamide, reference compound]",65%
2,"Cc1cc(C(C)C)c(CN(C(=O)c2c(C(F)F)nn(C)c2Cl)C2CC2)s1 [CMP2, 5-chloro-N-cyclopropyl-3-(difluoromethyl)-N-[(3-isopropyl-5-methyl-2-thienyl)methyl]-1-methyl-1H-pyrazole-4-carboxamide, reference compound]",0%
3,Cc1cc(C2(C)CC2)c(CN(C(=O)c2c(C(F)F)nn(C)c2F)C2CC2)s1 [I.11],100%
4,Cc1cc(C2(C)CC2)c(CN(C(=O)c2c(C(F)F)nn(C)c2Cl)C2CC2)s1 [I.12],100% and 92%
